The results in this text go back to patent US20120040930A1, “TETRACYCLIC TERPENE SERIES COMPOUNDS, METHODS FOR PREPARING SAME, USES THEREOF AS MEDICINES AND PHARMACEUTICAL COMPOUNDS CONTAINING SAME” (priority 2005, published 2012).

SMILES strings stand for the structures. pIC50: −log10 of the molar value.

For test [1], the target named is T1, muscle nicotinic acetylcholine receptors (Mus musculus, UniProt P02716+P04756+P09690+P20782).
T1 construct: isolated living vertebrate (frog and mouse) neuromuscular preparations; from tissue; host or cells: isolated mouse neuromuscular preparation
T1 sequence (P04756 21-457): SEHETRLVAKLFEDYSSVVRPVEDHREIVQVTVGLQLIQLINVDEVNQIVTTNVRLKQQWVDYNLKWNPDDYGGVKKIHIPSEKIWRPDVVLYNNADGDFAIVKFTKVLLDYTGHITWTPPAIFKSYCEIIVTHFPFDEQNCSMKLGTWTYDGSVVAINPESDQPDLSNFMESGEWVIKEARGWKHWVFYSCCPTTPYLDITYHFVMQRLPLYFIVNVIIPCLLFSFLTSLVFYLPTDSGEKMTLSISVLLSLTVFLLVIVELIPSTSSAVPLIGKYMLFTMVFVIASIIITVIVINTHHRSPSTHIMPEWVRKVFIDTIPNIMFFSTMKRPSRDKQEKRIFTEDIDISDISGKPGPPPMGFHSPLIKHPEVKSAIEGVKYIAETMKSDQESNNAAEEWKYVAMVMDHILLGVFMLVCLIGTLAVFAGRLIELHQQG
T1 sequence (P09690 24-501): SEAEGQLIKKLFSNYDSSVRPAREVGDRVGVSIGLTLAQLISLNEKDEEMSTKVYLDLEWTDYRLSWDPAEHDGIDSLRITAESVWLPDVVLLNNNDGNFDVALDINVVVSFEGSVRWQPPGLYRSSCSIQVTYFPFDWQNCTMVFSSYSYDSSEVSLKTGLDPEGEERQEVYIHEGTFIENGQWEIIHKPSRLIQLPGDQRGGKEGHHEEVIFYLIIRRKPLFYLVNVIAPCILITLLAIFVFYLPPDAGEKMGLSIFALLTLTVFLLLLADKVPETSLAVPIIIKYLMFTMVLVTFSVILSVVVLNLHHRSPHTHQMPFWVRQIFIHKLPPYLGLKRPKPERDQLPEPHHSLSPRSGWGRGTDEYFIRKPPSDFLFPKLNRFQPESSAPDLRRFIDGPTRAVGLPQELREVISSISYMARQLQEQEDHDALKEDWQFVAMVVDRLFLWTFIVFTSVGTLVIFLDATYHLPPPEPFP
T1 sequence (P02716 25-520): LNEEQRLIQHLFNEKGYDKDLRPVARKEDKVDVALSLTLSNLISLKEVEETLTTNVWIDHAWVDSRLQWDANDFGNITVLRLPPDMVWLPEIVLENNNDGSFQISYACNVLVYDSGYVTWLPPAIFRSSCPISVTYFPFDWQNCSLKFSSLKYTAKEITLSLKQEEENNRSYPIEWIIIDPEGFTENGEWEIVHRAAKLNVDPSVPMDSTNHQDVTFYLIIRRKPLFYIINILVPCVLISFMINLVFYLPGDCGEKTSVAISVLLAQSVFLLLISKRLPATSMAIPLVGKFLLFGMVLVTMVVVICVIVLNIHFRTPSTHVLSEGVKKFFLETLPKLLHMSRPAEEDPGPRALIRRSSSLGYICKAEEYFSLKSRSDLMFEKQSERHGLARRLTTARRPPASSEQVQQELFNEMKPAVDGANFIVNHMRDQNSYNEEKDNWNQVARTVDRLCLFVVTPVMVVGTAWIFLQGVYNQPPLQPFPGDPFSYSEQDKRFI
T1 sequence (P20782 21-493): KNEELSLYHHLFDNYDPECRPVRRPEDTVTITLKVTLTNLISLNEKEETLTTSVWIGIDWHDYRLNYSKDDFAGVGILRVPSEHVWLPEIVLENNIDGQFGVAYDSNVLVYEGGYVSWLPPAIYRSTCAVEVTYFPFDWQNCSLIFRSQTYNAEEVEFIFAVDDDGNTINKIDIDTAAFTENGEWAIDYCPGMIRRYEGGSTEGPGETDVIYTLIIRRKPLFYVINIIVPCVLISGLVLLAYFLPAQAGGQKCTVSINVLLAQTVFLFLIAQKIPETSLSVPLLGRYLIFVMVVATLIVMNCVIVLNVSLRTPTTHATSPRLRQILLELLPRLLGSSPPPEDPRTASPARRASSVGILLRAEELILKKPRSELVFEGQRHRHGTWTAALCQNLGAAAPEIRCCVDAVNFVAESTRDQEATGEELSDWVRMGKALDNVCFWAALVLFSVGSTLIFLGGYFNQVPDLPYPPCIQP
Put plainly: Electrophysiology: interaction with muscle nicotinic acetylcholine receptors, mouse neuromuscular junction. The source says: (§1) Secondly, the inventors determined, using electrophysiology, the ability of compound 8e to interact with muscle nicotinic acetylcholine receptors.

Test [2] concerns muscle nicotinic acetylcholine receptors. Put plainly: Electrophysiology: interaction with muscle nicotinic acetylcholine receptors, frog neuromuscular junction. To be noted: 160 μM.
Text: as §1

In test [3] the test system is skeletal neuromuscular junction. The experiment in a line: Cellular electrophysiology on isolated mouse neuromuscular preparations. As to the method: This extension of synaptic potentials is observed when the mouse neuromuscular preparations are placed in a normal survival medium (Krebs-Ringer) containing (in mM) NaCl, 151; KCl, 5; MgCl2, 1; CaCl2, 2; glucose, 11; and HEPES-NaOH, 5 (pH 7.4); and when the survival medium contains low concentrations of CaCl2 (0.4-1 mM) and high concentrations of MgCl2 (4-8 mM) to reduce the release of acetylcholine. The extension of synaptic potentials at the neuromuscular junction reflects the mean lifespan of synaptic channels opened by acetylcholine during their interactions with skeletal muscle nicotinic receptors. Inhibition of acetylcholinesterase increases acetylcholine concentration at the synaptic cleft, which allows acetylcholine to bind repeatedly with these receptors, thus extending the duration of synaptic responses.
Thus, the inhibition of acetylcholinesterase by this compound is not accompanied by depolarization of the muscle membrane.
From a pharmacological point of view, the inventors first tested the ability of compound 8e to modify nerve axon conduction.

In test [4] the target is T2, human serum butyrylcholinesterase (BChE) (Homo sapiens, UniProt P06276).
T2 construct: BChE isolated from human serum; from tissue; host or cells: human serum
T2 sequence (P06276 29-602): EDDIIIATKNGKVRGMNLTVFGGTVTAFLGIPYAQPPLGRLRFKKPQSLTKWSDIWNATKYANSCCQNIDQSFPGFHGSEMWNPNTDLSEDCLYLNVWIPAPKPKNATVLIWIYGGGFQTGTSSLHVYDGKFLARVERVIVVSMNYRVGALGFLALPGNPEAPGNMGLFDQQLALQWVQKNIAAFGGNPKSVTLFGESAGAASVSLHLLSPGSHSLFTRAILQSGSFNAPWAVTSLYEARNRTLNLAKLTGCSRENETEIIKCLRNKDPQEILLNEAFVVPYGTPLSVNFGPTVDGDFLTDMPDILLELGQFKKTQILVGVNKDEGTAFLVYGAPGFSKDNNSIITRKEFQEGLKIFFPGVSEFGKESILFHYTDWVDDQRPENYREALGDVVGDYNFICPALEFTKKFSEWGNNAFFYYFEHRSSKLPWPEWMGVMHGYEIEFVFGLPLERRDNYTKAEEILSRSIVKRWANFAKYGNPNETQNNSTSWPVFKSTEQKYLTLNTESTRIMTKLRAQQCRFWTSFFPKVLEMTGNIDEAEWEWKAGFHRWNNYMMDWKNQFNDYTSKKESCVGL
The experiment in a line: biochemical. To be noted: human serum BChE; read-out: BChE.

The target of test [5] is T3, acetylcholinesterase (AChE) isolated from Electrophorus electricus (Electrophorus electricus, UniProt O42275).
T3 construct: AChE isolated from Electrophorus electricus; from tissue
T3 sequence (O42275 24-633): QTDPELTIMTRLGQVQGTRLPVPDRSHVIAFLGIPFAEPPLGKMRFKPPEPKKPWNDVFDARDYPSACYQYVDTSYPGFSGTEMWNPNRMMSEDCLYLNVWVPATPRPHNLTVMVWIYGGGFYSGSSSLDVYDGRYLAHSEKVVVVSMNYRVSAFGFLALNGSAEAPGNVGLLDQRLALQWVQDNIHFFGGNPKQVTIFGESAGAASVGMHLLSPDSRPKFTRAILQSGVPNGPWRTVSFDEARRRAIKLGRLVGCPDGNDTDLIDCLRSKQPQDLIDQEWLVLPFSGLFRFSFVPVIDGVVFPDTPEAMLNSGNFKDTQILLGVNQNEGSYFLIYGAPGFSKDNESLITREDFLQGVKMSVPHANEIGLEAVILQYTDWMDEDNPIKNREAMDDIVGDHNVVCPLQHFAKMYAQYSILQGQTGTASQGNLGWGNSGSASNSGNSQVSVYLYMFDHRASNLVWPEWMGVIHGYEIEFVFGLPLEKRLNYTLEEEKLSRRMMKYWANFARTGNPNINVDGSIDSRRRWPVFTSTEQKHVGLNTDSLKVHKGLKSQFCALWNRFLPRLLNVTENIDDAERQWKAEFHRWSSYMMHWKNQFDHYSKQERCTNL
Put plainly: biochemical. The conditions noted are these: AChE isolated from Electrophorus electricus; read-out: AChE IC50.

As for `CC[C@H](C)C1=N[C@H]2CC=C3C[C@H]4C(=O)C[C@]5(C)[C@@H]([C@H](C)N(C)C)[C@H](O)C[C@@]5(C)[C@@H]4CC[C@H]3[C@]2(C)CO1` [Compound 8e, (20S)-10(9->1)abeo-4,14α-dimethyl-20-dimethylamino(2′-(S-1-methylpropyl)-4′,4′-dihydro[3′,1′]oxazin)-5α,9-pregn-1(10)-en-16α-ol-11-one], in test [1] (80 μM, species not given), the “motor end-plate miniature potentials” value is “causes a decrease in amplitude and blocking”. In addition, the “block of motor end-plate potentials evoked by motor nerve stimulation” value amounted to 80% in test [1] (160 μM, mouse neuromuscular junction) and 80% in test [2]. The nerve axon conduction entry in test [3] (1 μM to 300 μM, mouse neuromuscular preparations) is on record as “does not apparently modify nerve conduction”. For the same compound, in test [3] (1-25 μM, mouse neuromuscular preparations, normal Krebs-Ringer or low CaCl2/high MgCl2 medium), the “synaptic response half-times (motor end-plate potentials and miniature end-plate potentials)” value is on record as “produces an extension of synaptic response half-times”. Also, in test [3] (concentrations that extend synaptic potentials and higher (160-200 μM)), the “effect on muscle fiber resting potentials” value is given as “does not have a significant effect”. Also, the pIC50 in test [4] is less than 6.00; in test [5] it was 7.89.
